Data from patent US12281080B2, “Quinoline-based compounds and methods of inhibiting CDK8/19” (University of South Carolina, priority 2018, dated 2025).

Tests used:
Test in all cases: KINOMEscan scanMAX
Type in all cases: binding
Conditions in all cases: 2000 nM; read-out: Percent Control
[1] = biological target: CSNK2A2 (Homo sapiens (Human), UniProt P19784)
[2] = biological target: CAMKK2 (Homo sapiens (Human), UniProt Q96RR4)
[3] = biological target: PFPK5(P.falciparum) (MAL13P1.279) (Plasmodium falciparum (isolate 3D7), UniProt P61075)
[4] = biological target: KIT(D816V) (Homo sapiens (Human), UniProt P10721, D816V)
Chain of KIT(D816V) (P10721 26-976 D816V): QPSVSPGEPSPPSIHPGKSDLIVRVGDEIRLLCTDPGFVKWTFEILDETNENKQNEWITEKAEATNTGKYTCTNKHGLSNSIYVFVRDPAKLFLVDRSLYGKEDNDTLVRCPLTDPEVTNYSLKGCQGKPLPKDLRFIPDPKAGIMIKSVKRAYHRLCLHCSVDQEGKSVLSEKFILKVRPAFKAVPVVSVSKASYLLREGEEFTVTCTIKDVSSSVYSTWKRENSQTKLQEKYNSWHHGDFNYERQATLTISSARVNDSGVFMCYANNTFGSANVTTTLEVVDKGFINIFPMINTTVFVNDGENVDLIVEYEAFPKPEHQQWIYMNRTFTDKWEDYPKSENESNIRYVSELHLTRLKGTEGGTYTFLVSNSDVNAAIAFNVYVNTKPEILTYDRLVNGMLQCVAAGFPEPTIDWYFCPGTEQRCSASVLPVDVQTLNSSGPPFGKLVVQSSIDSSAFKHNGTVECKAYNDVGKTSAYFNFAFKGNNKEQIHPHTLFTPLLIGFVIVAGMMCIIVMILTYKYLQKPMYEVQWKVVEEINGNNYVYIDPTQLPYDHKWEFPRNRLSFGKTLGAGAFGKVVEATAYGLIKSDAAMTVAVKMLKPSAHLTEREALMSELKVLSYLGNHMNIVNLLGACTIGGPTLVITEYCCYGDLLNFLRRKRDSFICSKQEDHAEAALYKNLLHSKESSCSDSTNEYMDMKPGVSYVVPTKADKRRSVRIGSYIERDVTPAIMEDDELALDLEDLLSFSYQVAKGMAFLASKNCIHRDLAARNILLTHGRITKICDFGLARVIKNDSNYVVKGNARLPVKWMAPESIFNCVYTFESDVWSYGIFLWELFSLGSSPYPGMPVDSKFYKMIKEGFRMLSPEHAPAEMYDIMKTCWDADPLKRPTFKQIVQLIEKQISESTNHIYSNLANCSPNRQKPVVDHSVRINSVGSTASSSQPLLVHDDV

[5] = biological target: HUNK (Homo sapiens (Human), UniProt P57058)
Chain of HUNK (P57058 whole entry): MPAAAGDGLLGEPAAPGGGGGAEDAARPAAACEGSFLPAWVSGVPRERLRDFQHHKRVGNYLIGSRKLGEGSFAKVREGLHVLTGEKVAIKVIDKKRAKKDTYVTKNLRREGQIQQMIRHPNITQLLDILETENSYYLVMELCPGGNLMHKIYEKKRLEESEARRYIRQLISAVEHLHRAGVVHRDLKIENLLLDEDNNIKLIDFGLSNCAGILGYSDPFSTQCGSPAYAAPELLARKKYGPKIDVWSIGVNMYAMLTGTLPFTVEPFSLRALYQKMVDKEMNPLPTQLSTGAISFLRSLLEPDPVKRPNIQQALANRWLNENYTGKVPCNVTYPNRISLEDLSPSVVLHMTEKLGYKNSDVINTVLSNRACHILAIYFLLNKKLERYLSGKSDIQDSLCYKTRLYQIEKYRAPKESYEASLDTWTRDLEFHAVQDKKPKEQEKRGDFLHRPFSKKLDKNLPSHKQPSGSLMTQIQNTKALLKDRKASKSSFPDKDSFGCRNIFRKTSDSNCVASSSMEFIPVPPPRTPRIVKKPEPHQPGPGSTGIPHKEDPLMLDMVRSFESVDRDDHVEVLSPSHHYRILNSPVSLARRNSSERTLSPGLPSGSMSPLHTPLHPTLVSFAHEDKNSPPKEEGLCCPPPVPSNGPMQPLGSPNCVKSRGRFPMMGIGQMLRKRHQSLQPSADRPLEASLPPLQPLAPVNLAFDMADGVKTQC

[6] = biological target: LRRK2 (Homo sapiens (Human), UniProt Q5S007)
[7] = biological target: BRSK1 (Homo sapiens (Human), UniProt Q8TDC3)
[8] = biological target: NEK2 (Homo sapiens (Human), UniProt P51955)
Chain of NEK2 (P51955 whole entry): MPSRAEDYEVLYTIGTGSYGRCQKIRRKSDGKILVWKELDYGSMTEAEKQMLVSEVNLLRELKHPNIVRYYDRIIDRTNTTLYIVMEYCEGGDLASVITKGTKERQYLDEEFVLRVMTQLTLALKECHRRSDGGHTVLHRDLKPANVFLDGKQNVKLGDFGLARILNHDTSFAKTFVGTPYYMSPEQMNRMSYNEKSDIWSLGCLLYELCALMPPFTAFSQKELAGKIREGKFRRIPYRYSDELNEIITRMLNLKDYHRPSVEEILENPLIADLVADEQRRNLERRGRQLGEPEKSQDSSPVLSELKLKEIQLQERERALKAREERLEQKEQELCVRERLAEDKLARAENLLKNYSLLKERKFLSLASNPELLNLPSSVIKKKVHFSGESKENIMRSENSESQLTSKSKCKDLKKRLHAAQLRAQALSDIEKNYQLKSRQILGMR

[9] = biological target: LTK (Homo sapiens (Human), UniProt P29376)
Chain of LTK (P29376 17-864): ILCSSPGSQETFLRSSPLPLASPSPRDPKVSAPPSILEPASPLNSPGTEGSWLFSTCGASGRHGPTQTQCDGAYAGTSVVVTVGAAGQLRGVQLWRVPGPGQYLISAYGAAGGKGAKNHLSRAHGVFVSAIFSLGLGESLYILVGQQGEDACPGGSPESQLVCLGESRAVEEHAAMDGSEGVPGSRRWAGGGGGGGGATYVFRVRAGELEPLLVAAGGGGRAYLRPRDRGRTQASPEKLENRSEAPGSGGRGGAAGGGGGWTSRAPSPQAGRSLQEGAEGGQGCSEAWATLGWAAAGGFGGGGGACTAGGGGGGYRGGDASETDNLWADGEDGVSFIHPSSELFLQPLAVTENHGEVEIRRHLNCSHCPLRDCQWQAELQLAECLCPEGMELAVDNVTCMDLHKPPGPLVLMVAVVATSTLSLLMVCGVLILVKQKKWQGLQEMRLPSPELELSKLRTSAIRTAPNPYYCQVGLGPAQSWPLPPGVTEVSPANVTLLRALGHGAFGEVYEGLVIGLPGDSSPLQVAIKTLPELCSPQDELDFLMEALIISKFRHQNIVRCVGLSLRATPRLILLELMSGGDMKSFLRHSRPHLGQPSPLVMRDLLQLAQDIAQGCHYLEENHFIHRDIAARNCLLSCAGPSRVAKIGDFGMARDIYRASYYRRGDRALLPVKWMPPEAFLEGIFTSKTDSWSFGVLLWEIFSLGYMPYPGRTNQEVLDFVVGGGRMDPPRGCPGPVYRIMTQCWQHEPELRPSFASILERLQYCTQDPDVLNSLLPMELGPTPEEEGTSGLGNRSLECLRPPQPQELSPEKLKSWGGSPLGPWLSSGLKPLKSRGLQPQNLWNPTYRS

[10] = biological target: AMPK-alpha2 (PRKAA2) (Homo sapiens (Human), UniProt P54646)
Chain of AMPK-alpha2 (PRKAA2) (P54646 whole entry): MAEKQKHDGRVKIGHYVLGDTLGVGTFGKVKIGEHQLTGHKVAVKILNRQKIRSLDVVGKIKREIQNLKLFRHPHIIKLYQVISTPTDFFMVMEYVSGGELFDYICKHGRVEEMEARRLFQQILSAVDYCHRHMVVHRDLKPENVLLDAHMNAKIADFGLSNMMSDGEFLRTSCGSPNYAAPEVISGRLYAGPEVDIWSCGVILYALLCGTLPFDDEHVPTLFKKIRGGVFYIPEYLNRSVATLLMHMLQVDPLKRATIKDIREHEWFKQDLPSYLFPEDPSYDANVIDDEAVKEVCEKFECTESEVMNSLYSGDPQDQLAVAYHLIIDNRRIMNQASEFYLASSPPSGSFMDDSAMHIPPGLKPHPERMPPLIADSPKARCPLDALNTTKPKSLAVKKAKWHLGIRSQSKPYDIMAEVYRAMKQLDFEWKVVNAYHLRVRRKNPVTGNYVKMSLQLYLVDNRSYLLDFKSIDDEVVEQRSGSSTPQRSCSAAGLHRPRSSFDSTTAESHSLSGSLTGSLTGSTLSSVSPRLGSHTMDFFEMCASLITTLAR

[11] = biological target: YANK2 (STK32B) (Homo sapiens (Human), UniProt Q9NY57)
Chain of YANK2 (STK32B) (Q9NY57 whole entry): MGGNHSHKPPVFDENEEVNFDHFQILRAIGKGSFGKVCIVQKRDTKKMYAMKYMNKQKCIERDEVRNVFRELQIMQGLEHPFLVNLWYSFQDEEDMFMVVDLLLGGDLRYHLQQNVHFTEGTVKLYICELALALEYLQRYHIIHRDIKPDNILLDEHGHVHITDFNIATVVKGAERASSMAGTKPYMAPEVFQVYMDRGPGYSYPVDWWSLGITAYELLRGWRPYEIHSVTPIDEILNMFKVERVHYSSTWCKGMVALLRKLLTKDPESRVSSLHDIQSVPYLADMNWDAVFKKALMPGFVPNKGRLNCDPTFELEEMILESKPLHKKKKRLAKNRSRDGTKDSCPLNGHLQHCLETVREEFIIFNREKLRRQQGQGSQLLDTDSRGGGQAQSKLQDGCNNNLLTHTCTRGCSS

Chain of CAMKK2 (Q96RR4 whole entry): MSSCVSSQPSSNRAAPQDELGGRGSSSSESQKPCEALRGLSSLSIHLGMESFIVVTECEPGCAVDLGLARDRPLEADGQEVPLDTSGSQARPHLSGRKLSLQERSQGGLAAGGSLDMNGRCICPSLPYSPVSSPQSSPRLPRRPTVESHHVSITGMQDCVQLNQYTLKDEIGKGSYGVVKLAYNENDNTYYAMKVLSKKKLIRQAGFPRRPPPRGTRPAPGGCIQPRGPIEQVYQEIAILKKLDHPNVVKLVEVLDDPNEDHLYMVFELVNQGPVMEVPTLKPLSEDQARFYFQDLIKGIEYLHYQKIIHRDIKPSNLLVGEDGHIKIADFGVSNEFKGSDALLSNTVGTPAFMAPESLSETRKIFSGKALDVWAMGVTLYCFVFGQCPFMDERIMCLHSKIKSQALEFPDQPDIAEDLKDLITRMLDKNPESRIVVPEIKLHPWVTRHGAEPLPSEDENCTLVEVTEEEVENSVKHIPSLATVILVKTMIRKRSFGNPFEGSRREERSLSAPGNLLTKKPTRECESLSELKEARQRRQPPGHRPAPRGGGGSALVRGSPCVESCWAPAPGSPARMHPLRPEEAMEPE
Chain of CSNK2A2 (P19784 whole entry): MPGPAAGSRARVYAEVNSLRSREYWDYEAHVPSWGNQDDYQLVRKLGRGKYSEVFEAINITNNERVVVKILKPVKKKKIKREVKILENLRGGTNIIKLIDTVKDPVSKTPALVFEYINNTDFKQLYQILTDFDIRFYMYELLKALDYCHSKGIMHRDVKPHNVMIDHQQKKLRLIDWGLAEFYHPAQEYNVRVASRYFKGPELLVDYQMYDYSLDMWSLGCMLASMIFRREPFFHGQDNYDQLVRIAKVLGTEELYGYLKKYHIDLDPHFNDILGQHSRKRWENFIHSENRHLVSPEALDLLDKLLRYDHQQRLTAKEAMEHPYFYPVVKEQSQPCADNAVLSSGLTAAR

Compound CN1CCN(C(=O)c2ccc3cc(CCNc4ccnc5ccc(C#N)cc45)ccc3c2)CC1 [compound 6148, 4-((2-(6-(4-methylpiperazine-1-carbonyl)naphthalen-2-yl)ethyl)amino)quinoline-6-carbonitrile] has a remaining binding at 2 µM [1] of 64%, a remaining binding at 2 µM [2] of 82% and a remaining binding at 2 µM [3] of 70%. It also gave a remaining binding at 2 µM [4] of 100%, a remaining binding at 2 µM [5] of 74% and a remaining binding at 2 µM [6] of 85%. It also gave a remaining binding at 2 µM [7] of 100%, a remaining binding at 2 µM [8] of 100% and a remaining binding at 2 µM [9] of 93%. For the same compound, the remaining binding at 2 µM [10] was 42% and the remaining binding at 2 µM [11] was 89%.
